# Experiments:
# Assay in all cases: relative viability (nuclei count vs DMSO), 5 days (fraction); higher = more cells survive
# Tosedostat + OSI-027 = compound: CC(C)C[C@@H](C(=O)N[C@H](C(=O)OC1CCCC1)c1ccccc1)[C@H](O)C(=O)NO [Tosedostat] + COc1cccc2cc(-c3nc([C@H]4CC[C@H](C(=O)O)CC4)n4ncnc(N)c34)[nH]c12 [OSI-027] (partner 0.5 µM)
# Outline: (§1)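 Cells from lung cancer lines were seeded into 1536-well plates and, one day later, dosed by pin tool. Treatments were either a single drug or a fixed dose of an anchor drug with five library-drug doses (not always all listed) in √10 steps. After 5 days, nuclei were stained in a one-step fixation (final 0.05% Triton X-100, 1% formaldehyde, 1 ug/ml Hoechst) and counted on 4× images, and relative viability is the treated-to-vehicle nuclei ratio, as the median of duplicate plates.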
# Tosedostat + Tozasertib = compound: CC(C)C[C@@H](C(=O)N[C@H](C(=O)OC1CCCC1)c1ccccc1)[C@H](O)C(=O)NO [Tosedostat] + Cc1cc(Nc2cc(N3CCN(C)CC3)nc(Sc3ccc(NC(=O)C4CC4)cc3)n2)n[nH]1 [Tozasertib] (partner 0.1 µM)
# Outline: as §1
# Tosedostat + AZD7762 = compound: CC(C)C[C@@H](C(=O)N[C@H](C(=O)OC1CCCC1)c1ccccc1)[C@H](O)C(=O)NO [Tosedostat] + NC(=O)Nc1cc(-c2cccc(F)c2)sc1C(=O)N[C@H]1CCCNC1 [AZD7762] (partner 0.2 µM)
# Outline: as §1
# [1] = compound: CC1=NN=C(O1)C2=NN=C(C=C2)N3CCC(CC3)OC4=C(C=CC(=C4)F)Cl + Cc1nc(NC(=O)N2CCC[C@H]2C(N)=O)sc1-c1ccnc(C(C)(C)C(F)(F)F)c1 [Alpelisib] (partner 2 µM)
# Outline: as §1
Cell Line,relative viability (Tosedostat + OSI-027; first compound 0.02 µM),relative viability (Tosedostat + OSI-027; first compound 0.06325 µM),relative viability (Tosedostat + OSI-027; first compound 0.2 µM),relative viability (Tosedostat + OSI-027; first compound 0.6325 µM),relative viability (Tosedostat + OSI-027; first compound 2 µM),relative viability (Tosedostat + Tozasertib; first compound 0.02 µM),relative viability (Tosedostat + Tozasertib; first compound 0.06325 µM),relative viability (Tosedostat + Tozasertib; first compound 0.2 µM),relative viability (Tosedostat + Tozasertib; first compound 0.6325 µM),relative viability (Tosedostat + Tozasertib; first compound 2 µM),relative viability (Tosedostat + AZD7762; first compound 0.02 µM),relative viability (Tosedostat + AZD7762; first compound 0.06325 µM),relative viability (Tosedostat + AZD7762; first compound 0.2 µM),relative viability (Tosedostat + AZD7762; first compound 0.6325 µM),relative viability (Tosedostat + AZD7762; first compound 2 µM),relative viability ([1]; first compound 0.253 µM),relative viability ([1]; first compound 0.8 µM),relative viability ([1]; first compound 2.53 µM),relative viability ([1]; first compound 8 µM)
NCI-H2405,0.662,0.637,0.707,0.596,0.585,0.764,0.737,0.76,0.667,0.612,0.817,0.744,0.718,0.652,0.715,0.745,0.778,0.691,0.828
NCI-H520,0.215,0.285,–,0.335,0.22,0.448,0.478,0.438,0.399,0.542,–,–,–,–,–,0.864,0.846,0.953,0.88
NCI-H2085,0.555,0.797,0.704,0.699,0.673,0.695,0.695,0.784,0.909,0.838,–,1.03,1.05,0.973,0.965,0.922,0.908,0.8,0.71
NCI-H1944,0.424,0.401,0.422,0.381,0.38,0.244,0.244,0.23,0.256,0.22,0.659,0.494,0.501,0.437,0.453,0.565,0.629,0.691,0.648
LXF-289,0.904,0.799,0.808,0.692,0.561,0.198,0.167,0.169,0.122,0.0708,1.17,1.08,1.19,1.05,1.08,0.783,0.789,0.744,0.67
NCI-H596,0.826,0.924,0.909,0.564,0.629,0.893,0.875,0.791,0.934,0.729,1.04,1.21,1.13,1.17,1.2,–,0.535,0.444,0.391
NCI-H441,0.609,0.593,0.632,0.433,0.437,0.911,0.567,0.561,0.542,0.423,1.39,1.09,1.13,0.85,0.718,0.826,0.674,0.542,0.532
COR-L23,0.965,0.746,0.69,0.65,0.64,0.214,0.165,0.172,0.161,0.128,–,–,–,–,–,0.591,0.657,0.574,0.552
SK-LU-1,0.43,0.348,0.337,0.297,0.329,0.356,0.282,0.275,0.285,0.225,–,–,–,–,–,0.754,0.812,0.938,0.737
NCI-H1299,–,–,–,–,–,–,–,–,–,–,–,–,–,–,–,0.939,0.877,0.971,0.868
NCI-H1703,–,–,–,–,–,–,–,–,–,–,0.122,0.133,0.138,0.122,0.0985,0.313,0.388,0.337,0.395
COR-L 105,0.605,0.731,0.647,0.606,0.62,0.359,0.291,0.392,0.378,0.338,–,–,–,–,–,0.925,1.03,1.12,1.29
NCI-H1563,0.813,0.797,0.788,0.891,0.836,–,–,–,–,–,–,–,–,–,–,1,0.952,0.999,1.09
ChaGo-K-1,0.54,0.525,0.577,0.617,0.498,0.241,0.227,0.269,0.199,0.176,0.957,0.889,0.81,0.767,0.603,–,–,–,–
NCI-H661,0.706,0.767,0.714,0.648,0.561,0.354,0.353,0.374,0.395,0.342,–,–,–,–,–,0.73,0.421,0.629,0.564
NCI-H1648,0.28,0.268,0.262,0.242,0.267,0.518,0.493,0.402,0.576,0.433,0.678,0.735,0.768,0.538,0.509,–,–,–,–
A549,–,–,–,–,–,–,–,–,–,–,–,–,–,–,–,0.573,0.666,0.581,0.463
NCI-H522,0.842,0.82,0.819,0.916,0.79,0.561,0.566,0.533,0.509,0.45,0.901,0.907,0.953,0.827,0.738,–,–,–,–
NCI-H2023,0.431,0.383,0.328,0.251,0.231,0.378,0.319,0.35,0.291,0.169,–,–,–,–,–,0.499,0.444,0.43,0.361
NCI-H1623,0.433,0.429,0.456,0.462,0.453,0.41,0.42,0.425,0.387,0.42,–,–,–,–,–,–,–,–,–
SW 900,0.619,0.505,0.544,0.476,0.322,0.573,0.482,0.421,0.427,0.314,0.56,0.603,0.644,0.661,0.556,–,–,–,–
IA-LM,–,–,–,–,–,–,–,–,–,–,–,–,–,–,–,0.156,0.157,0.137,0.157
SW 1573,0.653,0.517,0.558,0.479,0.482,0.183,0.193,0.205,0.219,0.157,–,–,–,–,–,0.753,0.722,0.701,0.791
EBC-1,–,–,–,–,–,–,–,–,–,–,–,–,–,–,–,0.752,0.908,0.756,0.74
